The test has as its system S. aureus MW2. Nature of the test: Mouse MRSA bacteremia model: bispecific antibody alone or in combination with linezolid, kidney, lung and heart burden Day 4. It is filed as in vivo, Humanized C1q (C1q^Hu/Hu) mice. Here is the method:
The bacteremia model described above in Example 12 was used to evaluate the activity of an anti-IsdB× anti-C1q bispecific antibody against S. aureus MRSA strains in reducing bacterial burden when used in combination with a standard-of-care antibiotic.
Humanized C1q (C1q^Hu/Hu) mice were infected intraperitoneally with 1.3×10^8 colony forming units (CFUs) per mouse of S. aureus MW2 in a volume of 200 ul. S. aureus MW2 was grown to log phase, OD600≤1, in TSB at 37° C. and washed 3 times in PBS and adjusted to the desired density for infection. Starting at eighteen (18) hours following infection, 2 groups of mice (n=5) were treated with 80 mg/kg of linezolid by oral gavage (200 ul volume), twice daily on Days 1, 2 and 3. […] Mice were weighed daily until Day 4 post infection and change in weight was recorded. Mice were euthanized on Day 4 and kidneys, lungs and hearts were collected to determine organ burden. Briefly, the organs were homogenized in 5 mL PBS using gentleMACS Octo Dissociator (Miltenyi Biotec) using programme-E. The tissue homogenates were then diluted in PBS and multiple 10-fold serial dilutions were plated on LB agar plates and incubated at 37° C. overnight. The next day, individual colonies were counted to determine bacterial burden and results were reported as CFUs/gram tissue.

SMILES strings stand for the structures.

Take `CC(=O)NC[C@H]1CN(c2ccc(N3CCOCC3)c(F)c2)C(=O)O1` [linezolid, reference compound]: under “MW2”, the “log reduction in overall CFUs, lung” value was 2 log. Besides, for the setting “MW2, compared to infection control (8.5 logs)”, the “log reduction in overall CFUs, kidneys” value was “less than 2 log”. For the same molecule, the “log CFU reduction, heart” value (MW2, limit of detection 10^3 CFU) amounted to 3 log. In addition, the CFUs/g heart (single agent (H1H20631D 100 ug/mouse, Antibiotic None; or Linezolid, no antibody), heart) is 2.08E+05 CFUs/g. Moreover, the CFUs/g kidney (single agent (H1H20631D 100 ug/mouse, Antibiotic None; or Linezolid, no antibody), kidney) was 6.99E+06 CFUs/g. Also, for the setting “single agent (H1H20631D 100 ug/mouse, Antibiotic None; or Linezolid, no antibody), lung”, the CFUs/g lung came out at 6.98E+05 CFUs/g.

The values above are taken from patent US10865236B2, “Bispecific antigen-binding molecules that bind a staphylococcus target antigen and a complement component and uses thereof” (priority 2017, dated 2020).
